Experimental data taken from patent publication US12435091B2, “RNA-binding protein multimerization inhibitors and methods of use thereof” (THE UAB RESEARCH FOUNDATION, priority 2020, dated 2025).

What was measured:
[1] = system: Primary human neuronal cells; experiment: cytotoxicity in primary human neurons (morphology, cell number, metabolism, cleaved caspase-3); type: cell-based
Text: PrestoBlue cell viability reagent (ThermoFisher Scientific; Waltham, MA) was used for cell viability assays. The inhibitory dose-response data were normalized to the control (treatment with vehicle); the inhibitory dose-response curves, which were fitted by using Boltzmann equation, and the corresponding IC50s were generated by using OriginPro software (OriginLab Corporation, CA).
At the end of experiments, neurons and astrocytes were rinsed briefly with PBS and fixed by using 4% paraformaldehyde, pH 7.4 for 13 minutes at room temperature. Triton X-100 (0.3%) in PBST buffer (i.e., PBS with 0.1% Tween 20) was used for cell permeabilization for 30 minutes at room temperature. Cells were rinsed with PBST buffer 3 times for 10 minutes after fixation. Blocking buffer (3% BSA, 22.52 mg/ml glycine in PBST) was used to block unspecific antibody binding for 30 minutes at room temperature. Primary cleaved caspase 3 antibody (Cell Signaling Technology; Danvers, MA) at 1:200 dilution in PBST buffer with 1% BSA was utilized overnight at 4° C. for cleaved caspase 3 staining. The next day, cells were rinsed four times for 10 minutes with PBST buffer and then were incubated with secondary antibody (Alexa Fluor 594, goat anti-rabbit IgG, Invitrogen (Carlsbad, CA), 1:2000/5000 dilution) in PBST buffer with 1% BSA for 1 hour at room temperature in the dark. Next, cells were rinsed with PBST buffer 4 times for 10 minutes in the dark. Cell nucleus were stained with DAPI (4′,6-diamidino-2-phenylindole). Cell images were obtained with EVOS Fl (Life Technologies; Eugene, OR) imaging system.
The cellular metabolism declined by about 44% after treatment with SRI-42127, 25 uM for 48 hours as shown by FIG. 5E. […] Therefore, compound SRI-42127 inhibited glioma cell growth and had low neuronal and astrocyte cytotoxicity at concentrations below 15 uM.

[2] = system: inflammatory cytokine mRNAs in astrocytes; experiment: inflammatory cytokine mRNAs in LPS-stimulated astrocytes; type: cell-based
Description: Next, the impact of SRI-42127 on induction of inflammatory cytokine mRNAs as depicted in FIG. 15, Panel B was assessed. A significant 3-4-fold suppression of mRNA for IL-1β, IL-6, CXCL1, and CCL2 was observed. […] All chemokines were likewise suppressed, including KC, CCL2, CCL3, CCL4, CXCL10, from 2.5 to 8.1-fold.

[3] = system: XD456 neurospheres, HuR mRNA targets; experiment: Illumina global RNA-sequencing of PDGx neurospheres; type: cell-based; settings: 3 uM, 12 hours, compared to control
Description: (§1) Illumina global RNA-sequencing data were generated by utilizing PDGx neurospheres, which have been treated with a compound as described herein (e.g., SRI-42127, 3 uM) for 12 hours or with vehicle as the control. RNA was isolated by using TRIzol reagent (Invitrogen; Carlsbad, CA). The RNA samples were processed.
(§2) RNA sequencing was performed on PDGx-derived glioma neurospheres representing the different molecular subtypes (classical, neuronal, and mesenchymal) after treatment with vehicle (control) or SRI-42127 (3 uM) for 12 hours. Analysis of direct HuR mRNA targets and their corresponding cell signaling pathways was performed. Table 9 illustrates the evaluated gene sets, representing direct HuR mRNA targets, and their corresponding cell signaling pathways.
(§3) The analysis of direct HuR mRNA targets and their corresponding cell signaling pathways has been performed by using gene sets, which have been defined as the direct HuR targets following tumor neurosphere treatment with DHTS, an established modulator of HuR/mRNA interaction (Lal et al., Nucleic Acid Research, 2017). […] Data are represented as average+standard deviation (Aver+SD). The significance was evaluated by using Student t-test.
(§4) The analysis was generated based on RNA-Seq data.

[4] = system: X1524 neurospheres, HuR mRNA targets; experiment: as above; type: cell-based; settings: 3 uM, 12 hours, compared to control
Description: as §1, §2, §3, §4

[5] = system: allodynia after spared nerve injury; experiment: spared nerve injury (sciatic nerve) model, mechanical sensitivity (Von Frey); type: in vivo; settings: acute administration to DMSO-treated mice at day 7
Description: Wild-type male mice were subjected to a mid-thoracic contusion injury and then treated with SRI-42127 (15 mg/kg) every 8 hours for 4 days, starting 1 hour after injury. […] Not to be bound by theory, similar to spinal cord injury, chronic pain signaling is triggered by activation of microglia and astroglia in the spinal cord and production of inflammatory mediators (e.g. TNF-α, IL-1β, IL-6, INOS, CCL2) that induce hyperexcitation of sensory neurons in the dorsal horn. Mice underwent sciatic nerve lesioning to produce a spared nerve injury and then received SRI-42127 (15 mg/kg) or vehicle every 6 hours for 4 days (starting 1 h after injury). Mechanical sensitivity was assessed at day 7 post-injury. […] Following this test, a subset of mice in the DMSO-treated group was given an acute administration of SRI-42127 (or DMSO) and their mechanical sensitivity was tested at 30 minutes and 60 minutes post-administration. Acute treatment with SRI-42127 reversed allodynia in these mice for at least 60 minutes (p<0.01, FIG. 21, Panel D).

CN(c1ccc2ncc(-c3ccc4cn[nH]c4c3)n2n1)C1CCOCC1 [Compound 19]
decline of cellular metabolism ([1]; 25 uM for 48 hours): about 44%
cleaved caspase-3 immunostaining ([1]; neurons, up to 15 uM, 48 hours): no significant alterations
morphological changes of neurons ([1]; up to 15 uM for 48 hours): no morphological changes
neuron cell numbers and cell sprouting ([1]; up to 15 uM for 48 hours, listed as SRI-42127): remained unchanged
suppression of mRNA for IL-1β, IL-6, CXCL1, and CCL2 [2]: 3-4 fold
increase of IL-10 mRNA ([2]; 1.0 μM): ~3 fold
gene set average value, Activation of BH3-only proteins Homo sapiens_R-HSA-114452 [3]: 0.94
gene set average value, Cell Cycle Check points_Homo Sapiens_R-HSA-69620 [3]: 0.48
gene set average value, Cell Cycle, Mitotic_Homo Sapiens_R-HSA-69278 [3]: 0.54
gene set average value, Cell Cycle_Homo sapiens_R-HSA-1640170 [3]: 0.52
gene set average value, Cell cycle_Homo Sapiens_hsa04110 [3]: 0.60
gene set average value, Cellular Senescence_Homo sapiens_R-HSA-2559583 [3]: 0.64
gene set average value, Cellular responses to Stress_Homo sapiens_R-HSA-2262752 [3]: 0.53
gene set average value, Deadenylation-dependent mRNA decay_Homo sapiens_R-HSA-429914 [3]: 0.58
gene set average value, Developmental Biology_Homo sapiens_R-HSA-1266738 [3]: 0.49
gene set average value, Epstein-Barr virus Infection_Homo Sapiens_hsa05169 [3]: 0.49
gene set average value, G2/M Check points_Homo sapiens_R-HSA-69481 [3]: 0.47
gene set average value, G2/M DNA damage Checkpoint_Homo sapiens_R-HSA-69473 [3]: 0.50
gene set average value, Gene Expression_Homo Sapiens_R-HSA-2559583 [3]: 0.63
gene set average value, HTLV-1 infection_Homo Sapiens_hsa05186 [3]: 0.61
gene set average value, Intrinsic Pathway for Apoptosis_Homo sapiens_R-HSA-109606 [3]: 0.94
gene set average value, MAPK signaling Pathway_Homo Sapiens_hsa04010 [3]: 0.54
gene set average value, Membrane Trafficking_Homo sapiens_R-HAS-199991 [3]: 0.53
gene set average value, Mitotic G1-G1/S phases_Homo sapiens_R-HSA-453279 [3]: 0.61
gene set average value, P53 signaling pathway_Homo Sapiens_hsa04115 [3]: 1.19
gene set average value, RHO GTPases Activate Formins_Homo sapiens_R-HSA-5663220 [3]: 0.48
gene set average value, RHO GTPases Effectors_Homo sapiens_R-HSA-195258 [3]: 0.50
gene set average value, RNA degradation_Homo Sapiens_hsa03018 [3]: 0.65
gene set average value, Regulation of TP53 Activity through Phosphorylation_Homo sapiens_R-HSA-6804756 [3]: 0.35
gene set average value, Regulation of TP53 Activity_Homo sapiens_ [3]: 0.44
gene set average value, Signaling by Rho GTPases_Homo sapiens_R-HSA-194315 [3]: 0.45
gene set average value, TP53 Regulates Metabolic Genes_Homo sapiens_R-HSA-5628897 [3]: 0.54
gene set average value, Transcriptional Regulation by TP53_Homo sapiens_R-HSA-3700989 [3]: 0.64
gene set average value, Translocation of GLUT4 to the plasma membrane_Homo sapiens_R-HSA-1445148 [3]: 0.53
gene set average value, Activation of BH3-only proteins Homo sapiens_R-HSA-114452 [4]: 0.75
gene set average value, Cell Cycle Check points_Homo Sapiens_R-HSA-69620 [4]: 0.66
gene set average value, Cell Cycle, Mitotic_Homo Sapiens_R-HSA-69278 [4]: 0.67
gene set average value, Cell Cycle_Homo sapiens_R-HSA-1640170 [4]: 0.66
gene set average value, Cell cycle_Homo Sapiens_hsa04110 [4]: 0.75
gene set average value, Cellular Senescence_Homo sapiens_R-HSA-2559583 [4]: 0.76
gene set average value, Cellular responses to Stress_Homo sapiens_R-HSA-2262752 [4]: 0.70
gene set average value, Deadenylation-dependent mRNA decay_Homo sapiens_R-HSA-429914 [4]: 0.84
gene set average value, Developmental Biology_Homo sapiens_R-HSA-1266738 [4]: 0.72
gene set average value, Epstein-Barr virus Infection_Homo Sapiens_hsa05169 [4]: 0.79
gene set average value, G2/M Check points_Homo sapiens_R-HSA-69481 [4]: 0.66
gene set average value, G2/M DNA damage Checkpoint_Homo sapiens_R-HSA-69473 [4]: 0.67
gene set average value, Gene Expression_Homo Sapiens_R-HSA-2559583 [4]: 0.87
gene set average value, HTLV-1 infection_Homo Sapiens_hsa05186 [4]: 0.88
gene set average value, Intrinsic Pathway for Apoptosis_Homo sapiens_R-HSA-109606 [4]: 0.75
gene set average value, MAPK signaling Pathway_Homo Sapiens_hsa04010 [4]: 0.76
gene set average value, Membrane Trafficking_Homo sapiens_R-HAS-199991 [4]: 0.61
gene set average value, Mitotic G1-G1/S phases_Homo sapiens_R-HSA-453279 [4]: 0.63
gene set average value, P53 signaling pathway_Homo Sapiens_hsa04115 [4]: 1.07
gene set average value, RHO GTPases Activate Formins_Homo sapiens_R-HSA-5663220 [4]: 0.65
gene set average value, RHO GTPases Effectors_Homo sapiens_R-HSA-195258 [4]: 0.69
gene set average value, RNA degradation_Homo Sapiens_hsa03018 [4]: 0.94
gene set average value, Regulation of TP53 Activity through Phosphorylation_Homo sapiens_R-HSA-6804756 [4]: 0.64
gene set average value, Regulation of TP53 Activity_Homo sapiens_R-HSA-109606 [4]: 0.77
gene set average value, Signaling by Rho GTPases_Homo sapiens_R-HSA-194315 [4]: 0.72
gene set average value, TP53 Regulates Metabolic Genes_Homo sapiens_R-HSA-5628897 [4]: 0.78
gene set average value, Transcriptional Regulation by TP53_Homo sapiens_R-HSA-3700989 [4]: 0.81
gene set average value, Translocation of GLUT4 to the plasma membrane_Homo sapiens_R-HSA-1445148 [4]: 0.69
duration of reversal of allodynia after acute administration [5]: at least 60 minutes
